The test system of series [1] is fecal samples from formula-fed infants (intestinal flora). Nature of the series: Anaerobic fermentation of HMOs with fecal inocula of formula-fed infants, agmatine in supernatant by GC/MS and LC/MS/MS. The settings on record: for Increase of agmatine, HMO/blank (relative ratio of agmatine compared to the blank): formula fed infants, fermentation culture 37° C. Type of series: cell-based, human. The procedure:
(§1) Fecal samples from eight human babies, one group of four breast-fed and the other group of four formula-fed, were used as inocula for anaerobic fermentation (37° C.) of lacto-N-neotetraose (LNnT) and 2′-fucosyllactose. Supernatants from the fermentation cultures were sampled at 0 hr, 3 hr, and 6 hr. A culture without addition of HMOs served as a control. A sample of the fermentation medium (blank), which constituted approximately 90% of the starting culture volume, was also analyzed.
(§2) Samples were extracted and split into equal parts for analysis on GC/MS and LC/MS/MS platforms. Agmatine ions were identified in chromatograms, and peak area was integrated for quantitative analysis.

Series [2] has as its system fecal samples from breast-fed infants (intestinal flora). Kind of series: Anaerobic fermentation of HMOs with fecal inocula of breast-fed infants, agmatine in supernatant by GC/MS and LC/MS/MS. It counts as cell-based, human. Conditions: for Increase of agmatine, HMO/blank (relative ratio of agmatine compared to the blank): breast fed infants, fermentation culture 37° C. The procedure:
as §1, §2

Series [3] concerns NMDA subclass of glutamate receptors. Conditions: cited from earlier work.
The conditions of series [4]: mice, peripheral injection at 50 and 300 mg/kg; cited from earlier work.
The subject of series [5] is nitric oxide synthase (NOS), all isoforms. The settings on record: cited from earlier work.
For series [6] the following is noted: non-human primates, peripheral injection at 50 and 300 mg/kg; cited from earlier work.

Where two headings read alike, the source gives them in different places. Marks after values point to notes of the source that are not given here.

Regarding `CC(=O)N[C@H]1[C@H](O[C@H]2[C@@H](O)[C@@H](CO)O[C@@H](O[C@H]3[C@H](O)[C@@H](O)C(O)O[C@@H]3CO)[C@@H]2O)O[C@H](CO)[C@@H](O[C@@H]2O[C@H](CO)[C@H](O)[C@H](O)[C@H]2O)[C@@H]1O` (mixture of isomers) [LNnT, lacto-N-neotetraose], the “agmatine relative to a blank (in words)” value in series [1] (fecal samples from formula-fed infants (FF)) and in series [2] (fecal samples from breast-fed infants (BF)) was “dramatic increases in agmatine” throughout. The “Increase of agmatine, HMO/blank (relative ratio of agmatine compared to the blank)” value in series [1] (0 h) was 2.12; in series [1] (3 h), 61.77^a; in series [1] (6 h), 75.02^a; in series [2] (0 h), 9.52^a; in series [2] (3 h), 34.4; in series [2] (6 h), 1.59.

Regarding `N=C(N)NCCCCN` [agmatine], the “affinity for the NMDA subclass of glutamate receptors” value in series [3] is recorded as “modest affinity”. In addition, the brain agmatine concentrations result in series [4] and in series [6] was “significant increases in brain agmatine concentrations” in each case. In addition, the “inhibition of NOS isoforms” value in series [5] is given as “inhibit all isoforms of NOS”. Moreover, the nitric oxide production result in series [5] is recorded as “suppress nitric oxide production”.

The values are drawn from US11160817B2, “Nutritional compositions comprising neuroprotective dietary oligosaccharides” (ABBOTT LABORATORIES, priority 2012, dated 2021).
